Reference: patent US20260315376A1, “NOVEL OPHTHALMIC COMPOSITION” (Cipla Limited, priority 2022, published 2026)
≈ marks a conversion by molar mass, not a printed value.

Legend:
S. haemolyticus = experiment: Broth microdilution antibacterial susceptibility (MIC), keratitis/conjunctivitis isolates; format: cell-based, Staphylococcus haemolyticus; conditions: at ≤2 mcg/mL
Method: (§1) Example 3: In Vitro “Proof of Concept” Study of Effects of Plazomicin on Isolates from Bacterial Keratitis and/or Conjunctivitis
(§2) Isolates from patients diagnosed clinically with microbial keratitis were tested for antibacterial susceptibility against plazomicin agents using reference broth microdilution methods.
(§3) 21 grams of Muller Hinton broth powder was suspended in 1000 ml of distilled water.
(§4) Pure cultures of bacterial isolates were prepared in Blood Agar/Mueller Hinton agar from cryovials.
(§5) A standardized inoculum of 0.5 McFarland was prepared using direct colony suspension method.
(§6) 3-5 well isolated colonies were taken from 18-24 hour culture plate and suspended into 2 ml of sterile saline/Muller Hinton broth.
(§7) A homogenous suspension was made, and the turbidity was adjusted to 0.5McFarland turbidity standard (approximately 1*10^6-8 CFU/ml) using the Densitometer.
(§8) A 0.1 ml of standardized bacterial inoculum was added to 9.9 ml of sterile saline solution. (i.e., a 1:100 dilution).
(§9) A 96 well round bottomed plate was used for the Microbroth dilution assay. […]
(§10) The plate was incubated for 18-24 hours to read the Minimum Inhibitory Concentration (MIC).
(§11) Gram positive isolates evaluated: • 1. […]

[1] = system: species of Staphylococcus; conditions: cited from earlier work
S. epidermidis = experiment: Broth microdilution antibacterial susceptibility (MIC), keratitis/conjunctivitis isolates; format: cell-based, Staphylococcus epidermidis; conditions: at ≤2 mcg/mL
Method: as §1, §2, §3, §4, §5, §6, §7, §8, §9, §10, §11

Moraxella lacunata = experiment: as above; format: cell-based; conditions: at ≤2 mcg/mL
Method: as §1, §2, §3, §4, §5, §6, §7, §8
(§12) A 96 well round bottomed plate was used for the Microbroth dilution assay.
(§13) A 100 μl of Muller Hinton broth containing drug concentrations from 0.125 mcg/ml to 64 mcg/ml (0.125 mcg/ml, 0.25 mcg/ml, 0.5 mcg/ml, 1 mcg/ml, 2 mcg/ml, 4 mcg/ml, 8 mcg/ml, 16 mcg/ml, 32 mcg/ml, and 64 mcg/ml) were added to the 96 well.
(§14) To this a 100 μl of the diluted bacterial inoculum (1:100) was added to each well with varying concentration of drugs. Each well contained 5*10^5 CFU/ml bacteria.
(§15) Growth control (Respective organism+Muller Hinton broth) and sterility control (Sterile Muller Hinton broth) were added to the 96 well plate.
as §10
(§16) • 1. Pseudomonas • 2. Klebsiella pneumoniae • 3. Klebsiella pneumoniae (ESBLs) • 4. Moraxella lacunata • 5. Haemophilus influenzae • 6. Proteus • 7. Serratia • 8. Enterobacter e.

Enterobacter spp. = experiment: as above; format: cell-based; conditions: at ≤2 mcg/mL
Method: as §1, §2, §3, §4, §5, §6, §7, §8, §12, §13, §14, §15, §10, §16

Pseudomonas spp. = experiment: as above; format: cell-based
Method: as §1, §2, §3, §4, §5, §6, §7, §8, §12, §13, §14, §15, §10, §16

[2] = system: Enterobacterales isolates; experiment: as above; format: cell-based
Method: as §1, §2, §3, §4, §5, §6, §7, §8, §12, §13, §14, §15, §10, §16

[3] = system: Methicillin resistant Staphylococcus aureus (MRSA); experiment: as above; format: cell-based
Method: as §1, §2, §3, §4, §5, §6, §7, §8, §12, §13, §14, §15, §10
(§17) Gram positive isolates evaluated: • 1. Methicillin susceptible Staphylococcus aureus (MSSA) • 2. Methicillin resistant Staphylococcus aureus (MRSA) • 3. Staphylococcus epidermidis • 4. Staphylococcus hominis • 5. Staphylococcus haemolyticus • 6. Streptococcus pneumoniae • 7. Corynebacterium

Corynebacterium = experiment: as above; format: cell-based; conditions: at ≤2 mcg/mL
Method: as §1, §2, §3, §4, §5, §6, §7, §8, §12, §13, §14, §15, §10, §17

Staphylococcus spp. = experiment: as above; format: cell-based
Method: as §1, §2, §3, §4, §5, §6, §7, §8, §12, §13, §14, §15, §10, §17

[4] = system: Methicillin susceptible Staphylococcus aureus (MSSA); experiment: as above; format: cell-based
Method: as §1, §2, §3, §4, §5, §6, §7, §8, §12, §13, §14, §15, §10, §17

[5] = system: Isolates from Bacterial Keratitis and/or Conjunctivitis; experiment: In vitro proof of concept study, overall antibacterial activity; format: cell-based
Method: as §1, §2, §3, §4, §5, §6, §7, §8, §9, §10, §11

conjunctival isolates = experiment: Broth microdilution antibacterial susceptibility (MIC), conjunctival isolates; format: cell-based; conditions: ≤4 mcg/mL
Method: as §1, §2, §3, §4, §5, §6, §7, §8, §9, §10, §11

[6] = system: Gram-negative enteric bacteria; conditions: cited from earlier work
MRSA = conditions: vs amikacin; cited from earlier work
MSSA = conditions: vs amikacin; cited from earlier work
S. hominis = experiment: Broth microdilution antibacterial susceptibility (MIC), keratitis/conjunctivitis isolates; format: cell-based, Staphylococcus hominis; conditions: at ≤2 mcg/mL
Method: as §1, §2, §3, §4, §5, §6, §7, §8, §9, §10, §11

[7] = Staphylococcus aureus, 18-24 hours incubation

What does the source list for CN[C@@H]1[C@@H](O)[C@@H](O[C@@H]2[C@@H](O)[C@H](O[C@H]3OC(CNCCO)=CC[C@H]3N)[C@@H](N)C[C@H]2NC(=O)[C@@H](O)CCN)OC[C@]1(C)O [Plazomicin]?
activity (% of isolates) (S. haemolyticus): 100%; activity [1]: potent activity; activity (% of isolates) (S. epidermidis): 100%; activity (% of isolates) (Moraxella lacunata): 100%; activity (% of isolates) (Enterobacter spp.): 100%; showed activity for % of isolates (Pseudomonas spp.): 50%; MIC50 (Pseudomonas spp.; 18-24 hours incubation): 4 µg/mL (≈ 6.75 µM); MIC90 (Pseudomonas spp.; 18-24 hours incubation): 16 µg/mL (≈ 27 µM); isolates inhibited ([2]; at ≤2 mcg/mL): 61.5%; isolates inhibited ([2]; at ≤4 mcg/mL): 11.5%; susceptible isolates [3]: 60%; MIC50 [3, 7]: 2 µg/mL (≈ 3.37 µM); MIC90 [3, 7]: 8 µg/mL (≈ 13.5 µM); activity (% of isolates) (Corynebacterium): 100%; isolates inhibited (Staphylococcus spp.; at ≤2 mcg/mL): 46%; isolates inhibited (Staphylococcus spp.; at ≤4 mcg/mL): 73.5%; isolates inhibited (Staphylococcus spp.; at ≤8 mcg/mL): 90.10%; susceptible isolates [4]: 67.3%; MIC50 [4, 7]: 2 µg/mL (≈ 3.37 µM); MIC90 [4, 7]: 8 µg/mL (≈ 13.5 µM); antibacterial activity (conclusion) [5]: very good antibacterial activity; susceptibility of conjunctival isolates (conjunctival isolates): 100%; in vitro activity compared with amikacin, gentamicin and tobramycin [6]: more potent in vitro activity than amikacin, gentamicin and tobramycin; activity compared with amikacin (MRSA): greater activity than amikacin; activity compared with amikacin (MSSA): greater activity than amikacin; activity (% of isolates) (S. hominis): 100%
